Here are results for one compound from patent US8338410B2, “Neuroprotective compounds and pharmaceutical compositions comprising them” (Biocodex, priority 2005, dated 2012).

This test has as its system mixed cultures of rat cortical neurones and astrocytes. Nature of the test: Density of neuritic extensions marked by anti-neurofilament antibody, with or without excess glutamate. It counts as cell-based. To be noted: for density of neurofilaments: control culture medium. An excerpt:
The principle of the investigation consisted of evaluating the survival of cortical neurones in co-culture with astrocytes after the application of a neurotoxic agent, excess glutamate.
Neurone survival is quantified by the density of the system of neuritic extensions marked by an anti-neurofilament antibody in the absence or presence of glutamate.
• Cell type: Initial culture of cortical neurones from 14 day rat embryos and initial culture of cortical astrocytes from newborn rats. • Culture medium: DMEM-Ham F12 (Invitrogen 21331020) • B27 2% (invitrogen 17504044) • L-glutamine 2 mM (Invitrogen 25030024) • Penicillin 50 UI/ml—Streptomycin 50 μg/ml (Invitrogen 15070063) • Nerve Growth Factor 10 ng/ml (NGF, Invitrogen 13290.010) • Survival medium: MEM (Invitrogen 21090022) • L-glutamine 2 mM (Invitrogen 25030024) • Penicillin 50 UI/ml—Streptomycin 50 μg/ml (Invitrogen 15070063) • Supplement N2 (Invitrogen 17502-048) 1.2 Prior Cytotoxicity • Platelets: 96 wells • Culture time: 8 days • Cells/well: cortical neurones+astrocytes • Product range: from 100 μM then ratio 3 • Replicates: 3 • Cell/product contact: 48 hours • Evaluation parameters: microscopic observation and MTT hydrolysis. • MTT: 3-(4,5-dimethylthiozol-2-yl)-2,5-diphenyltetrazolium bromide 1.3 Treatment and Analysis of the Network of Extensions Marked with Antineurofilament Antibody
The cortical neurones were obtained from the cortex of 14 day rat embryos cultured in platelet culture medium 96 and then in a stove at 37° C. and 5% CO2 with saturated humidity. After 2 days culture astrocytes obtained from newborn rat cortex were seeded in the wells (in a ratio of 1 astrocyte to 4 neurones). After 10 days culture the mature neurones synthesised neurofilaments (structural protein specific to mature neurones); in addition to this these neurones expressed functional receptors to glutamate on their surfaces and could therefore be intoxicated.
On the 12th day of culture the medium was replaced by survival medium with or without etifoxine in 3 concentrations and the neurones were or were not intoxicated with glutamate (Sigma G1501) at a strength of 2 mM and 10 mM. Each culture condition was applied to 4 wells. The cultures were incubated for 2 periods (6 and 24 hours).
A positive control was carried out in the survival culture medium containing Nerve Growth Factor (NGF; 10 ng/ml) and basic Fibroblast Growth Factor (FGFb; 5 ng/ml) and the cells were intoxicated under the same conditions.
At the end of the two incubation periods (6 and 24 hours) the cell layers were fixed and marked with a anti-68- and 200 kD neurofilament monoclonal antibody (DAKO M0762) and then developed using a mouse anti-immunoglobulin goat antibody conjugate Alexia fluor 488 (Interchim A-11029). Controls without primary antibody were performed. All the controls were negative (no non-specific labelling). After extensive washing with PBS the preparations were observed under epi-fluorescence (Nikon Diaphot 300 microscope).
2 images were obtained for each culture well (4 wells per experimental condition) using a Nikon DXM1200F camera controlled by LUCIA 6.0 software.
All the images were obtained under the same conditions and with identical camera settings.
The densities of the networks of extensions marked with anti-neurofilament antibody were examined using LUCIA 6.0 software. Initial image processing made it possible to increase the intensity of the specific marking on the extensions. Areas in which marking was positive were binarised and the percentage marking per image was determined (marked surface area/total surface area examined).
The results (mean values±standard error with respect to the mean (SEM) were expressed as percentage marking per microscope field (n=8 measurements/culture conditions). 2-factor analysis of variance (Etifoxine and glutamate), followed by the Student Newman-Keuls multiple comparisons test was used for statistical comparison of the results. […]

In the case of `CCNC1=Nc2ccc(Cl)cc2C(C)(c2ccccc2)O1.Cl` (centres unmarked) [etifoxine, 6-chloro-2-ethylamino-4-methyl-4-phenyl-4H-[3,1]benzoxazine hydrochloride], for the setting “control culture medium (without glutamate), 6 hours, significant at 10 μM”, the “density of marked neurofilaments” value is “increased the density of marked neurofilaments in a dose-dependent way”. In addition, the density of neurofilaments result (24 hours, 10 μM) was “increased the density of neurofilaments”; the density of neurofilaments result (24 hours, 1 and 3 μM) is recorded as “without effect”. For the same compound, the “density of neurofilaments in the presence of glutamate” value is, setting by setting: (glutamate 2 mM, 24 hours, compound 10 μM) “opposed the effects of 2 mM of glutamate”; (glutamate 2 and 10 mM, 6 hours, compound 3 and 10 μM) “opposed the decrease in density of neurofilaments induced by glutamate”.
